This is an account of results in ChEMBL document CHEMBL3734749, “Naturally occurring FANCFHes1 complex inhibitors from Wrightia religiosa” (Medchemcomm, 2015).

Test [1] concerns Bone marrow cell. Put plainly: Reduction of colony formation in Fanconi A deficient mouse bone marrow cells at 50 uM after 10 to 14 days. It counts as functional, cell-based.
Test [2] is described as follows: Inhibition of GST-tagged recombinant mouse beta-catenin (128 to 683 amino acid residues)/human recombinant TCF4E (1 to 100 amino acid residues) complex formation expressed in Escherichia coli JM109 after 1 hrs by microplate reader assay.
Test [3] concerns the target T1, Fanconi anemia group F protein/Transcription factor HES-1 (Homo sapiens) (UniProt Q9NPI8+Q14469). Put plainly: (§1) Inhibition of Cy3-GST-tagged human recombinant full length FANCF/Cy3-tagged human full length HES1 (1 to 280 amino acid residues) interaction expressed in Escherichia coli JM109 after 1 hrs by microplate reader assay.
The target in test [4] is T2, Fanconi anemia group F protein/Transcription factor HES-1 (Homo sapiens, UniProt Q14469+Q9NPI8).
T2 sequence (Q9NPI8 whole entry): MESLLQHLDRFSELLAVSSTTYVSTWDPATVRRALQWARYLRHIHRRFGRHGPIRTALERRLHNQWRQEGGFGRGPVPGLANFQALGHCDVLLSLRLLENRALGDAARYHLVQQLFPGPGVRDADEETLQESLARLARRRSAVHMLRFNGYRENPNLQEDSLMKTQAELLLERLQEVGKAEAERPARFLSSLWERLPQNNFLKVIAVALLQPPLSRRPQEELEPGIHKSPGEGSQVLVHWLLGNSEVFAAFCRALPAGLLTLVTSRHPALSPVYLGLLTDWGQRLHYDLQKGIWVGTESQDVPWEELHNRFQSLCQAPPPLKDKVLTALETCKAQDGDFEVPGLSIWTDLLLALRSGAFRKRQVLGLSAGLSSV
T2 sequence (Q14469 whole entry): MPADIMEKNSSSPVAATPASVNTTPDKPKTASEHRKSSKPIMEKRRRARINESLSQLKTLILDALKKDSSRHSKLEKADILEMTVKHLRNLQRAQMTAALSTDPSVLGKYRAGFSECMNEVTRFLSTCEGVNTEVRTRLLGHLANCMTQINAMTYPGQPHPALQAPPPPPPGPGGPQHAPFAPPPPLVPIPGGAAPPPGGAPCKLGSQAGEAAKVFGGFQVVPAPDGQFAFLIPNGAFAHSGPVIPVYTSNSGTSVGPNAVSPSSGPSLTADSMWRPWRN
The description is as §1.

In test [5] the target is T1, Fanconi anemia group F protein/Transcription factor HES-1 (Homo sapiens). The experiment in a line: Inhibition of Cy3-GST-tagged human recombinant full length FANCF/Cy3-tagged human full length HES1 (1 to 280 amino acid residues) interaction expressed in Escherichia coli JM109 at 10 uM after 1 hrs by microplate reader assay.
For test [6], the target named is T3, Transcription factor HES-1 (Homo sapiens, UniProt Q14469).
T3 sequence (Q14469 whole entry): T2 sequence (Q14469 whole entry)
Put plainly: Inhibition of Cy3-tagged human recombinant full length HES1 (1 to 280 amino acid residues)/Cy3-GST-tagged human recombinant full length HES1 (1 to 280 amino acid residues) dimer formation expressed in Escherichia coli JM109 after 1 hr by microplate reader assay.

Test [7] deals with Bone marrow cell. Put plainly: Reduction of colony formation in Fanconi C deficient mouse bone marrow cells at 50 uM after 10 to 14 days. It is filed as functional, cell-based.
Test [8] is described as follows: Inhibition of Cy3-GST-tagged human recombinant full length FANCF/Cy3-tagged rat Hes1 (3 to 281 amino acid residues) interaction expressed in Escherichia coli JM109 at 50 uM after 1 hrs by microplate reader assay.
Test [9] can be described thus: Reduction of colony formation in wild type mouse bone marrow cells at 50 uM after 10 to 14 days. It is filed as functional, Bone marrow cell. Also noted: scale not given: the % may be the effect or the level left.

pIC50: −log10 of the molar value. Activity calls are given as the source filed them. No cut-off for these calls is given here.

On to `C[C@@H]1O[C@@H](OC[C@H]2O[C@@H](Oc3c(-c4ccc(O[C@@H]5O[C@@H](C)[C@H](O)[C@@H](O)[C@H]5O)c(O)c4)oc4cc(O)cc(O)c4c3=O)[C@H](O)[C@@H](O)[C@@H]2O)[C@H](O)[C@H](O)[C@H]1O`, for which the result with Bone marrow cell [1] was Active. Besides, the figures for the pIC50 in [2], in test [4] and in test [6] were below 4.00, 4.63 and 4.59, respectively. Moreover, the inhibition result in test [3] was “Dose-dependent effect”; in [5] it was 40%. In the test on Bone marrow cell [7], the result was inactive. For the same compound, the inhibition entry in test [8] is “Active”. Further, the Activity in [9] is reported as 40%.

Take `C[C@@H]1O[C@@H](OC[C@H]2O[C@@H](Oc3c(-c4ccc(O)c(O)c4)oc4cc(O)cc(O)c4c3=O)[C@H](O)[C@@H](O)[C@H]2O)[C@H](O)[C@H](O)[C@H]1O`: the pIC50 in [2] was below 4.00; in test [4], 4.45; in test [6], below 4.00. For the same compound, the inhibition entry in test [3] is “Dose-dependent effect”; in test [5], 40%. The inhibition result in test [8] is “Active”.

For the compound `C[C@@H]1O[C@@H](OC[C@H]2O[C@@H](Oc3c(-c4ccc(O[C@@H]5O[C@@H](C)[C@H](O)[C@@H](O)[C@H]5O)cc4)oc4cc(O)cc(O)c4c3=O)[C@H](O)[C@@H](O)[C@@H]2O)[C@H](O)[C@H](O)[C@H]1O`, the inhibition result in test [3] is “Dose-dependent effect”. Moreover, the inhibition result in test [8] was “Active”.
